The source of these data is patent publication US8865122B2, “Methods and compositions for protein labelling” (Genentech, Inc., priority 2009, dated 2014).

Structures are written as SMILES.

One data set deals with Hsp90. The data set can be described thus: Hsp90 targeted therapy (17-AAG) treatment response monitored by microPET. It is filed as in vivo, Beige nude XID mice. The protocol:
Hsp90 targeted therapy and microPET imaging. Mice were distributed into two groups (n=4) according to tumor uptake and volume as determined by ^18F-4D5ThioFab one day prior to 17-AAG treatment (Gill et al (2009) Jour. Med. Chem. 52(19):5816-5825). 17-AAG was administered to the treated group at day 0, while the control group animals were left untreated. PET imaging with ^18F-4D5ThioFab was performed at day 1 (fourteen hours after the administration of the last 17-AAG dose), day 5, and day 7. Coronal slices through the tumor of control animals and animals treated with 17-AAG one day before and one day after therapy are shown in FIG. 5a. […] The renal clearance of ^18F-4D5ThioFab was predominant with significant accumulation of radioactivity in the bladder and high uptake in the renal cortex (Table 3). The hepatobiliary route also contributed to tracer excretion leading to accumulation of radioactive metabolites in the large intestine and gall bladder while the retention of radioactivity in the liver was relatively low. […]
Mice were anesthetized with 3% sevoflurane and inoculated i.v. via the tail vein catheter with 0.3-0.4 mCi of ^18F-Thio4D5Fab in isotonic solution (50-100 μL). […] Body temperature was measured by a rectal probe and maintained by warm air. […]

The test system of another data set is HER2. As to conditions: after 17-AAG, BT474 xenograft, cited from earlier work.
The nature of data set [1]: lipophilicity (log P) measurement. The format is physicochemical. As to conditions: pH 7.4. The protocol: After SPE treatment, method B provided [^18F] 5 with a yield of 59±4%, a radiochemical purity of 94%, and a specific activity of 5.1±1.5 Ci/μmol (determined against an HPLC standard curve of ^19F-labeled 5) in 47±1 min (n=5). The identity of [^18F] 5 was confirmed by HPLC co-elution with ^19F-labeled standard and by LC/MS analysis of the decayed product. The lipophilicity (log P) of [^18F]5 (−2.41±0.09) was measured at pH 7.4 consistent with published methods (Rodionov et al (2007) J Am Chem Soc 129:12705-12).

Data set [2] in a line: water solubility observation. It is filed as physicochemical. From the text: 4 or [^18F]FPEG4N3 with methods B and C. […] Therefore, method C may be well suited for general radiochemical application facilitating the development of a consistent radiochemical process for the production of a variety of ^18F-labeled prosthetic groups. This may have strong implications for automation and may eliminate the need for dedicating a synthesis module to a specific prosthetic group, as is the case with [^18F]SFB.

Regarding `C=CCNC1=C2C[C@@H](C)C[C@H](OC)[C@H](O)[C@@H](C)/C=C(\C)[C@H](OC(N)=O)[C@@H](OC)/C=C\C=C(/C)C(=O)NC(=CC1=O)C2=O` [Compound 17-AAG, 17-(allylamino)-17-demethoxygeldanamycin], in the data set on Hsp90 (day 1 after 17-AAG (three 50 mg/kg i.p. doses), compared to control group and day −1, BT474M1 xenograft), the “reduction in tumor uptake of ^18F-4D5ThioFab” value is recorded as 50%. In addition, the “rebound of HER2 expression” value in the data set with Hsp90 (day 5 after 17-AAG, ^18F-4D5ThioFab tumor uptake) was found to be 100%. The “return of HER2 to pretreatment levels” value with HER2 (^68Ga-DCHF (Smith-Jones et al)) was 12 days. Besides, in the data set on HER2 (imaged with ^68Ga-DCHF (Smith-Jones et al)), the “reduction in HER2 levels” value is on record as 70%.

In data set [1], `O=C1C=CC(=O)N1CCOCCOCCOCCOCCOCCOCc1cn(CCOCCOCCOCCOCCOCCOCCOCC[18F])nn1` [[^18F]5] displayed a logP of -2.41 ± 0.09.

On to `[N-]=[N+]=NCCOCC[18F]` [[^18F]FPEG2N3], for which the water solubility result in data set [2] is listed as “limited water solubility”.
